Results published in PubChem BioAssay AID2060602 (Molecular Pharmacology Branch, DTP, NCI, 2025).
Values joined by “and” are separate entries in the source; they are usually repeats but may differ in a detail not shown here. Equal values may be shown once.

Tested on: 648629-189-R-J1-PDC complex spheroids viability
Assay: Anticancer human tumor 648629-189-R-J1-PDC patient-derived bladder carcinoma cell line growth inhibition [CLK]
Settings: for viability, T/C: stronger effect = lower value; active = viability on the fitted dose curve at most 10% of control; inactive = the rest
In short: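 Patient-derived tumor cells grown as complex spheroids with HUVEC endothelial cells and mesenchymal stem cells, treated with drug combinations. Concentrations descend in half-log steps from near clinical Cmax, or from 10 microM if Cmax unknown.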

[1] = curve of first compound, second compound 0.0316 µM
[2] = curve of first compound, second compound 0.1 µM
[3] = curve of first compound, second compound 0.316 µM
[4] = curve of first compound, second compound 1 µM
[5] = curve of first compound, second compound 3.16 µM
[6] = curve of first compound, second compound 10 µM
[7] = second compound 0.0316 µM, first compound 0.00316 µM
[8] = second compound 0.0316 µM, first compound 0.01 µM
[9] = second compound 0.0316 µM, first compound 0.0316 µM
[10] = second compound 0.0316 µM, first compound 0.1 µM
[11] = second compound 0.0316 µM, first compound 0.316 µM
[12] = second compound 0.0316 µM, first compound 1 µM
[13] = second compound 0.1 µM, first compound 0.00316 µM
[14] = second compound 0.1 µM, first compound 0.01 µM
[15] = second compound 0.1 µM, first compound 0.0316 µM
[16] = second compound 0.1 µM, first compound 0.1 µM
[17] = second compound 0.1 µM, first compound 0.316 µM
[18] = second compound 0.1 µM, first compound 1 µM
[19] = second compound 0.316 µM, first compound 0.00316 µM
[20] = second compound 0.316 µM, first compound 0.01 µM
[21] = second compound 0.316 µM, first compound 0.0316 µM
[22] = second compound 0.316 µM, first compound 0.1 µM
[23] = second compound 0.316 µM, first compound 0.316 µM
[24] = second compound 0.316 µM, first compound 1 µM
[25] = second compound 1 µM, first compound 0.00316 µM
[26] = second compound 1 µM, first compound 0.01 µM
[27] = second compound 1 µM, first compound 0.0316 µM
[28] = second compound 1 µM, first compound 0.1 µM
[29] = second compound 1 µM, first compound 0.316 µM
[30] = second compound 1 µM, first compound 1 µM
[31] = second compound 3.16 µM, first compound 0.00316 µM
[32] = second compound 3.16 µM, first compound 0.01 µM
[33] = second compound 3.16 µM, first compound 0.0316 µM
[34] = second compound 3.16 µM, first compound 0.1 µM
[35] = second compound 3.16 µM, first compound 0.316 µM
[36] = second compound 3.16 µM, first compound 1 µM
[37] = second compound 10 µM, first compound 0.00316 µM
[38] = second compound 10 µM, first compound 0.01 µM
[39] = second compound 10 µM, first compound 0.0316 µM
[40] = second compound 10 µM, first compound 0.1 µM
[41] = second compound 10 µM, first compound 0.316 µM
[42] = second compound 10 µM, first compound 1 µM
[43] = second compound 0.0316 µM, first compound 3.16 µM
[44] = second compound 0.0316 µM, first compound 10 µM
[45] = second compound 0.1 µM, first compound 3.16 µM
[46] = second compound 0.1 µM, first compound 10 µM
[47] = second compound 0.316 µM, first compound 3.16 µM
[48] = second compound 0.316 µM, first compound 10 µM
[49] = second compound 1 µM, first compound 3.16 µM
[50] = second compound 1 µM, first compound 10 µM
[51] = second compound 3.16 µM, first compound 3.16 µM
[52] = second compound 3.16 µM, first compound 10 µM
[53] = second compound 10 µM, first compound 3.16 µM
[54] = second compound 10 µM, first compound 10 µM
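For viability, T/C in this document: drug exposure lasted seven days before viability readout; 100% = DMSO vehicle control wells.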

COc1c(OCCCN2CCOCC2)ccc2c3n(c(=NC(=O)c4cnc(N)nc4)nc12)CCN3 + CNC(=O)c1ccc(Nc2nc(OC3CCCC3)c3c(-c4ccc5nc(C)oc5c4)c[nH]c3n2)c(OC)c1
92.8 nM: IC50 [1]
inactive: viability, T/C [7] 94.5% | viability, T/C [8] 92.6% | viability, T/C [9] 88.2% | viability, T/C [10] 46.9% | viability, T/C [11] 15.3% | viability, T/C [13] 101% | viability, T/C [14] 105% | viability, T/C [15] 80.6% | viability, T/C [16] 49.1% | viability, T/C [17] 17.6% | viability, T/C [19] 30.4% | viability, T/C [20] 31.4% | viability, T/C [21] 34.1% | viability, T/C [22] 31.3% | viability, T/C [23] 17.9% | viability, T/C [24] 8.81% | viability, T/C [25] 19.9% | viability, T/C [26] 19.9% | viability, T/C [27] 16.1% | viability, T/C [28] 14.5% | viability, T/C [29] 11.1% | viability, T/C [31] 16.3% | viability, T/C [32] 15.8% | viability, T/C [33] 16.1% | viability, T/C [34] 11.2% | viability, T/C [37] 19.9% | viability, T/C [38] 18.3% | viability, T/C [39] 16.9% | viability, T/C [40] 13.4%
93 nM: IC50 [2]
active: viability, T/C [12] 8.61% | viability, T/C [18] 8.37% | viability, T/C [30] 5.6% | viability, T/C [35] 7.88% | viability, T/C [36] 4.37% | viability, T/C [41] 9.26% | viability, T/C [42] 5.85%
< 3.16 nM: IC50 [3] | IC50 [4] | IC50 [5] | IC50 [6]

CC(=O)O[C@H]1C(=O)[C@@]2(C)[C@H]([C@H](OC(=O)c3ccccc3)[C@]3(O)C[C@H](OC(=O)[C@H](O)[C@@H](NC(=O)c4ccccc4)c4ccccc4)C(C)=C1C3(C)C)[C@]1(OC(C)=O)CO[C@@H]1C[C@@H]2O + CN1CCN(c2cc(C(=O)Nc3cc4cc(-c5cnn(C)c5)ccc4cn3)ccn2)CC1
active: viability, T/C [10] 8.37% | viability, T/C [11] 9.02% | viability, T/C [12] 10.6% | viability, T/C [43] 7.39% | viability, T/C [44] 9.59% | viability, T/C [15] 7.2% | viability, T/C [16] 8.42% | viability, T/C [17] 6.79% | viability, T/C [18] 7.78% | viability, T/C [45] 8.57% | viability, T/C [46] 9.47% | viability, T/C [21] 9.01% | viability, T/C [22] 9.65% | viability, T/C [23] 10.1% | viability, T/C [24] 9.51% | viability, T/C [47] 8.91% | viability, T/C [48] 11.2% | viability, T/C [27] 0.14% | viability, T/C [28] 0.13% | viability, T/C [29] 0.87% | viability, T/C [30] 0.11% | viability, T/C [49] 0.47% | viability, T/C [50] 0.64% | viability, T/C [33] 0.07% | viability, T/C [34] 1.18% | viability, T/C [35] 0.13% | viability, T/C [36] 0.09% | viability, T/C [51] 0.11% | viability, T/C [52] 0.1% | viability, T/C [39] 0.1% | viability, T/C [40] 0.13% | viability, T/C [41] 0.2% | viability, T/C [42] 0.17% | viability, T/C [53] 1.53% | viability, T/C [54] 0.16%
< 31.6 nM: IC50 [1] | IC50 [2] | IC50 [3] | IC50 [4] | IC50 [5] | IC50 [6]
inactive: viability, T/C [9] 10.9%

CC(CO)NC(=O)c1cc(-c2ccc(Cl)cc2)nn(-c2cnn(C)c2)c1=O (configuration not stated)
inactive: viability, T/C (compound 0.0316 µM) 103% and 108% | viability, T/C (compound 0.1 µM) 96.4% and 90.6% | viability, T/C (compound 0.316 µM) 95.2% and 95.5% | viability, T/C (compound 1 µM) 96.3% and 98.4% | viability, T/C (compound 3.16 µM) 88.3% and 117% | viability, T/C (compound 10 µM) 86.7% and 92.5%
> 10000 nM: IC50 (curve of compound)

Nc1ccn(C2OC(CO)C(O)C2(F)F)c(=O)n1 (configuration not stated) + CNC(=O)c1ccc(Nc2nc(OC3CCCC3)c3c(-c4ccc5nc(C)oc5c4)c[nH]c3n2)c(OC)c1
38.2 nM: IC50 [1]
inactive: viability, T/C [9] 56.8% | viability, T/C [10] 16.1% | viability, T/C [15] 58.7% | viability, T/C [16] 23.9% | viability, T/C [17] 10.1% | viability, T/C [21] 18.1% | viability, T/C [22] 14.3% | viability, T/C [27] 18.2% | viability, T/C [28] 13.3% | viability, T/C [29] 11.8% | viability, T/C [33] 16.2% | viability, T/C [34] 14.8% | viability, T/C [35] 11.2% | viability, T/C [36] 11.7% | viability, T/C [39] 18.1% | viability, T/C [40] 18% | viability, T/C [41] 14.7% | viability, T/C [42] 10.1%
active: viability, T/C [11] 10.6% | viability, T/C [12] 8.41% | viability, T/C [43] 8.43% | viability, T/C [44] 6.82% | viability, T/C [18] 8.46% | viability, T/C [45] 7.09% | viability, T/C [46] 5.88% | viability, T/C [23] 8.69% | viability, T/C [24] 7.21% | viability, T/C [47] 7.97% | viability, T/C [48] 6.5% | viability, T/C [30] 8.47% | viability, T/C [49] 9.1% | viability, T/C [50] 7.07% | viability, T/C [51] 11.2% | viability, T/C [52] 7.1% | viability, T/C [53] 9.44% | viability, T/C [54] 7.39%
< 31.6 nM: IC50 [3] | IC50 [4] | IC50 [5] | IC50 [6]
42.1 nM: IC50 [2]

COc1cccc2c1C(=O)c1c(O)c3c(c(O)c1C2=O)CC(O)(C(=O)CO)CC3OC1CC(N)C(O)C(C)O1 (configuration not stated)
< 31.6 nM: IC50 (curve of compound)
inactive: viability, T/C (compound 0.0316 µM) 32.3% and 23% | viability, T/C (compound 0.1 µM) 16.2%
active: viability, T/C (compound 0.316 µM) 7.93% and 6.42% | viability, T/C (compound 1 µM) 0.61% and 0.54% | viability, T/C (compound 3.16 µM) 0.12% and 0.15% | viability, T/C (compound 10 µM) 0.13% and 0.14%

Cn1ncnc1[C@H]1c2n[nH]c(=O)c3cc(F)cc(c23)N[C@@H]1c1ccc(F)cc1 + CNC(=O)c1ccc(Nc2nc(OC3CCCC3)c3c(-c4ccc5nc(C)oc5c4)c[nH]c3n2)c(OC)c1
< 0.316 nM: IC50 [3] | IC50 [4] | IC50 [5] | IC50 [6]
inactive: viability, T/C (second compound 0.0316 µM, first compound 0.000316 µM) 112% | viability, T/C (second compound 0.0316 µM, first compound 0.001 µM) 98.1% | viability, T/C [7] 95.4% | viability, T/C [8] 102% | viability, T/C [9] 81.4% | viability, T/C [10] 73.6% | viability, T/C (second compound 0.1 µM, first compound 0.000316 µM) 86% | viability, T/C (second compound 0.1 µM, first compound 0.001 µM) 86.3% | viability, T/C [13] 81.5% | viability, T/C [14] 83% | viability, T/C [15] 68.3% | viability, T/C [16] 75.8% | viability, T/C (second compound 0.316 µM, first compound 0.000316 µM) 25.7% | viability, T/C (second compound 0.316 µM, first compound 0.001 µM) 25.6% | viability, T/C [19] 30% | viability, T/C [20] 21% | viability, T/C [21] 22.4% | viability, T/C [22] 21.3% | viability, T/C (second compound 1 µM, first compound 0.000316 µM) 18.4% | viability, T/C (second compound 1 µM, first compound 0.001 µM) 18.9% | viability, T/C [25] 17.2% | viability, T/C [26] 18.1% | viability, T/C [27] 15.6% | viability, T/C [28] 12.5% | viability, T/C (second compound 3.16 µM, first compound 0.000316 µM) 19.2% | viability, T/C (second compound 3.16 µM, first compound 0.001 µM) 18.4% | viability, T/C [31] 19.3% | viability, T/C [32] 16.3% | viability, T/C [33] 17% | viability, T/C [34] 16.6% | viability, T/C (second compound 10 µM, first compound 0.000316 µM) 18.1% | viability, T/C (second compound 10 µM, first compound 0.001 µM) 19.5% | viability, T/C [37] 20.3% | viability, T/C [38] 17.7% | viability, T/C [39] 19.4% | viability, T/C [40] 14.8%
> 100 nM: IC50 [1] | IC50 [2]
